Legend:
Human COX-1 = molecular target: T1, Human COX-1 (Homo sapiens, UniProt P23219); assay: COX-1 enzyme activity in human whole blood (A23187-stimulated, thromboxane B2 EIA); format: cell-based; settings: 100 μM test compound
T1 construct: Human blood (≈50 mL) from male or female donors who had not received any aspirin or NSAIDs for 14 days was collected; endogenous in cells; host or cells: human whole blood from donors, heparinised, stimulated with calcium ionophore A23187
Protocol: (§1) The assay for COX-1 and COX-2 enzyme activity, in the human whole blood was performed as described in Brideau et al., Inflamm Res., 45: 68-74 (1996)). Human blood (≈50 mL) from male or female donors who had not received any aspirin or NSAIDs for 14 days was collected at two local area blood donor centers and placed in polypropylene syringes containing sodium heparin (20 units per mL blood, final concentration). The blood was transported to the laboratory on ice packs and used within 1.5 hours of collection. Upon receipt in the laboratory, the blood was allowed to come to room temperature for 15 minutes prior to distribution in 1 mL aliquots per well of 24 well tissue culture plates. The plates were then placed on a gently rotating platform shaker in a 5% CO2 incubator at 37° C. for 15 minutes. Test compounds were dissolved in DMSO, at 1000 fold the final desired concentration, and further diluted, as indicated, in DMSO. One μL of each dilution of the test compound was added per well, in duplicate wells; wells not receiving test compound (e.g., basal, background or control wells) received 1 μL DMSO.
(§2) To induce COX-2, lipopolysaccharide (LPS) from E. coli (LPS, serotype 026:B6 or serotype 0127:B8, Sigma Chemical Co., St. Louis, Mo., Catalogue No. L3755 or L3129, respectively) was added at 10 μg/mL (2 μL of 5 mg/mL LPS in DMSO) to appropriate wells 15 minutes after the addition of the test compound. (Basal or background wells not incubated with LPS received 2 μL of DMSO.) For the stimulation of COX-1, the calcium ionophore, A23187 (free acid from Sigma Chemical Co., St. Louis, Mo., Catalogue No. C7522) was added at 25 μM (1 μL of 25 mM stock in DMSO) to separate wells 4.5 hours after the addition of the test compound. (Again, basal, background or control wells not stimulated with A23187 received 1 μL of DMSO.) At 5 hours after the addition of the test compound, all incubations were terminated by placement on ice and the addition of 2 mM EGTA (100 μL of 20 mM EGTA, tetrasodium, in PBS (phosphate buffered saline) without Ca^++ and Mg^++, pH 7.2)). The resulting solutions, were transferred by polyethylene transfer pipettes to 15 mL polypropylene centrifuge tubes and centrifuged at 1200 g for 10 minutes at 4° C. One hundred μL of plasma was removed from each blood sample and added to 1 mL of methanol in new 15 mL polypropylene centrifuge tubes, vortexed, and stored overnight at −20° C. The next day, the samples were centrifuged at 2000 g for 10 minutes at 4° C. and the supernatants transferred to glass tubes and evaporated to dryness. The samples were assayed for thromboxane B2 using EIA kits supplied by Cayman Chemical Co. (Ann Arbor, Mich., Catalogue No. 519031) in duplicate wells after reconstitution with EIA Buffer and appropriate dilution (2000 fold for COX-1 and 500 fold for Cox-2 samples).
The % inhibition for COX-1 and COX-2 enzyme activity in human whole blood by the test compounds, at the indicated concentrations, are given in Table 1.

Human COX-2 = molecular target: T2, Human COX-2 (Homo sapiens, UniProt P35354); assay: COX-2 enzyme activity in human whole blood (LPS-induced, thromboxane B2 EIA); format: cell-based
T2 construct: Human blood (≈50 mL) from male or female donors who had not received any aspirin or NSAIDs for 14 days was collected; endogenous in cells; host or cells: human whole blood from donors, heparinised, COX-2 induced with E. coli LPS
T2 sequence (P35354 18-604): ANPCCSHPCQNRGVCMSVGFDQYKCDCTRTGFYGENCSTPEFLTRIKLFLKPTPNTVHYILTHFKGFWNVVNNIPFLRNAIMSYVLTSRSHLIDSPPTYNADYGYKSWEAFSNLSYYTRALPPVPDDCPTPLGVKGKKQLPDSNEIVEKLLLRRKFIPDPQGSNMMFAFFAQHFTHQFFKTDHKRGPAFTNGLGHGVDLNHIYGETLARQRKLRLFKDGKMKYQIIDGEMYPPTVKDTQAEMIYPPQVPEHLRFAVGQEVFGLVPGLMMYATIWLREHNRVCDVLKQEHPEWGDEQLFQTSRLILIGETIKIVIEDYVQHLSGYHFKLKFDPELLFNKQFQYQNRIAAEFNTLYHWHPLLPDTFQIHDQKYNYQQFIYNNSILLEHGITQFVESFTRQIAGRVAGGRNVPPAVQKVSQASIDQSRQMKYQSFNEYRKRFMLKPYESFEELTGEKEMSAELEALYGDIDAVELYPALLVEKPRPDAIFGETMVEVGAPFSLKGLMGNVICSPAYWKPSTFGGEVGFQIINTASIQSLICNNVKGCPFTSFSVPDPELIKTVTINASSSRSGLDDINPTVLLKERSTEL
Protocol: as §1, with “Human” for “The assay for COX-1 and COX-2 enzyme activity, in the human whole blood was performed as described in Brideau et al., Inflamm Res., 45: 68-74 (1996)). Human”
as §2, with “(Basal” for “To induce COX-2, lipopolysaccharide (LPS) from E. coli (LPS, serotype 026:B6 or serotype 0127:B8, Sigma Chemical Co., St. Louis, Mo., Catalogue No. L3755 or L3129, respectively) was added at 10 μg/mL (2 μL of 5 mg/mL LPS in DMSO) to appropriate wells 15 minutes after the addition of the test compound. (Basal”, “dryness.” for “dryness. The samples were assayed for thromboxane B2 using EIA kits supplied by Cayman Chemical Co. (Ann Arbor, Mich., Catalogue No. 519031) in duplicate wells after reconstitution with EIA Buffer and appropriate dilution (2000 fold for COX-1 and 500 fold for Cox-2 samples).”

T1 sequence (P23219 24-599): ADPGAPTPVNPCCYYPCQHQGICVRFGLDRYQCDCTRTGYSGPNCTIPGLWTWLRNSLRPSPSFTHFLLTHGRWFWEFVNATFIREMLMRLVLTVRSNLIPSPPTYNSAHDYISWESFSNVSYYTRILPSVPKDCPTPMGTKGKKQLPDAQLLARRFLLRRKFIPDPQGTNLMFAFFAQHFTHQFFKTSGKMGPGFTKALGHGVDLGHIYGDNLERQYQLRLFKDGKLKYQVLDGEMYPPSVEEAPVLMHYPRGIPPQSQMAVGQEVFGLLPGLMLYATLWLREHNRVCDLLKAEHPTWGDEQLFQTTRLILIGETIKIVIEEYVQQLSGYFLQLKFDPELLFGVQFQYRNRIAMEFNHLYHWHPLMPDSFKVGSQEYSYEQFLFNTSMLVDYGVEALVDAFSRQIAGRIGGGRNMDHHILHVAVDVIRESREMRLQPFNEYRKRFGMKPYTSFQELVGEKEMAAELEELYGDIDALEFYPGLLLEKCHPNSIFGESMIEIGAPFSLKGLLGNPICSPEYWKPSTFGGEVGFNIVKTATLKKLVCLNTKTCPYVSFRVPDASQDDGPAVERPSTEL

Compound	inhibition at 100 µM (Human COX-1)	inhibition at 1 µM (Human COX-2; 1 μM test compound)	inhibition at 10 µM (Human COX-2; 10 μM test compound)	melting point	COX-1 Inhibition (% at 100 μM) (Human COX-1)	COX-2 Inhibition (% at 1 μM) (Human COX-2; 1 μM test compound)	COX-2 Inhibition (% at 10 μM) (Human COX-2; 10 μM test compound)
CS(=O)(=O)c1ccc(-c2cc(CCCO)nn2CC2CCCCC2)cc1 [Example 5b, 1-(1-(Cyclohexylmethyl)-3-(3-hydroxypropyl)pyrazol-5-yl)-4-(methylsulfonyl)benzene]	90%	45%	90%	–	–	–	–
CS(=O)(=O)c1ccc(-c2cc(/C=C/CO)nn2CC2CCCCC2)cc1 [Example 4d, 1-(3-((1E)-3-Hydroxyprop-1-enyl)-1-(cyclohexylmethyl)pyrazol-5-yl)-4-(methylsulfonyl)benzene]	50%	25%	45%	–	–	–	–
CCOC(=O)c1cccc(C(=O)c2cccnc2-c2ccc(S(C)(=O)=O)cc2)c1 [Example 12b, Ethyl 3-((2-(4-(methylsulfonyl)phenyl)-3-pyridyl)carbonyl)benzoate]	25%	10%	20%	125 to 132 °C	–	–	–
CS(=O)(=O)c1ccc(-c2cc(/C=C/CO[N+](=O)[O-])nn2CC2CCCCC2)cc1 [Example 4e, 1-(3-((1E)-3-Nitrooxyprop-1-enyl)-1-(cyclohexylmethyl)pyrazol-5-yl)-4-(methylsulfonyl)benzene]	40%	35%	75%	44 to 47 °C	–	–	–
CS(=O)(=O)c1ccc(-c2cc(CO)nn2Cc2ccccc2)cc1 [Example 3c, 1-(3-(Hydroxymethyl)-1-benzylpyrazol-5-yl)-4-(methylsulfonyl)benzene]	25%	10%	15%	–	–	–	–
CS(=O)(=O)c1ccc(-c2cc(CO)nn2CC2CCCCC2)cc1 [Example 1g, 1-(1-(Cyclohexylmethyl)-3-(hydroxymethyl)pyrazol-5-yl)-4-(methylsulfonyl)benzene]	65%	0%	45%	–	–	–	–
CS(=O)(=O)c1ccc(-c2ncccc2C(=O)c2cccc(F)c2)cc1 [Example 10c, 3-Fluorophenyl 2-(4-methylsulfonylphenyl)(3-pyridyl) ketone]	5%	55%	50%	–	–	–	–
CS(=O)(=O)c1ccc(-c2cc(C(F)(F)F)cnc2C(C#N)c2ccccc2)cc1 (stereo not drawn) [Example 9b, 2-(3-(4-(methylsulfonyl)phenyl)-5-(trifluoromethyl)(2-pyridyl))-2-phenylethanenitrile]	-10%	35%	55%	–	–	–	–
CS(=O)(=O)c1ccc(-c2ncccc2C(=O)c2ccccn2)cc1 [Example 11b, 2-(4-(Methylsulfonyl)phenyl)(3-pyridyl) 2-pyridyl Ketone]	0%	0%	15%	143 to 147 °C	–	–	–
CS(=O)(=O)c1ccc(-c2cc(CCCO[N+](=O)[O-])nn2CC2CCCCC2)cc1 [Example 5c, 1-(1-(Cyclohexylmethyl)-3-(3-(nitrooxy)propyl)pyrazol-5-yl)-4-(methylsulfonyl)benzene]	90%	75%	100%	76 to 77 °C	–	–	–
CS(=O)(=O)c1ccc(-c2cc(C(F)(F)F)cnc2C(=O)c2ccccc2)cc1 [Example 9a, 3-(4-(Methylsulfonyl)phenyl)-5-(trifluoromethyl)(2-pyridyl) Phenyl Ketone]	90%	–	–	141 to 142 °C	–	–	–
COC(=O)c1cc(-c2ccc(S(C)(=O)=O)cc2)n(Cc2ccccc2)n1 [Example 8, Methyl 5-(4-(methylsulfonyl)phenyl)-1-benzylpyrazole-3-carboxylate]	55%	15%	25%	142 to 143 °C	–	–	–
C=Cc1cc(-c2ccc(S(C)(=O)=O)cc2)n(CC2CCCCC2)n1 [Example 6b, 1-(1-(Cyclohexylmethyl)-3-vinylpyrazol-5-yl)-4-(methylsulfonyl)benzene]	30%	70%	100%	136 to 138 °C	–	–	–
CS(=O)(=O)c1ccc(-c2cc(CO[N+](=O)[O-])nn2Cc2ccccc2)cc1 [Example 3d, 4-(Methylsulfonyl)-1-(3-((nitrooxyl)methyl)-1-benzylpyrazol-5-yl)benzene]	55%	20%	40%	93 to 94 °C	–	–	–
COC(=O)/C=C/c1cc(-c2ccc(S(C)(=O)=O)cc2)n(CC2CCCCC2)n1 [Example 7, Methyl (2E)-3-(1-(cyclohexylmethyl)-5-(4-(methylsulfonyl)phenyl)pyrazol-3-yl) prop-2-enoate]	–	–	–	–	5%	15%	30%
CS(=O)(=O)c1ccc(-c2cc(COCCO)nn2CC2CCCCC2)cc1 [Example 2e, 4-(1-(Cyclohexylmethyl)-3-((2-hydroxyethoxy)methyl)pyrazol-5-yl)-1 (methylsulfonyl)benzene]	65%	25%	65%	–	–	–	–

Source: patent publication US7244753B2, “Cyclooxygenase-2 selective inhibitors, compositions and methods of use” (NitroMed, Inc., priority 2002, dated 2007)
